Data from ChEMBL document CHEMBL5346973 (J Med Chem, 2023).
Where a SMILES comes first, the peptide text is derived from it.

Assays:
[1] = biological target: Nicotinic acetylcholine receptor alpha9/alpha10 (Rattus norvegicus, UniProt P43144+Q9JLB5); assay: Antagonist activity at rat alpha9alpha10 nACh receptor expressed in Xenopus oocyte assessed as inhibition of acetylcholine-induced response at -70 mV holding potential by voltage-clamp based electrophysiological assay; format: cell-based
[2] = biological target: Neuronal acetylcholine receptor subunit alpha-7 (Rattus norvegicus, UniProt Q05941); assay: Antagonist activity at rat alpha7 nACh receptor expressed in Xenopus oocyte assessed as inhibition of acetylcholine-induced response at -70 mV holding potential by voltage-clamp based electrophysiological assay; format: cell-based
Sequence of Neuronal acetylcholine receptor subunit alpha-7 (Q05941 whole entry): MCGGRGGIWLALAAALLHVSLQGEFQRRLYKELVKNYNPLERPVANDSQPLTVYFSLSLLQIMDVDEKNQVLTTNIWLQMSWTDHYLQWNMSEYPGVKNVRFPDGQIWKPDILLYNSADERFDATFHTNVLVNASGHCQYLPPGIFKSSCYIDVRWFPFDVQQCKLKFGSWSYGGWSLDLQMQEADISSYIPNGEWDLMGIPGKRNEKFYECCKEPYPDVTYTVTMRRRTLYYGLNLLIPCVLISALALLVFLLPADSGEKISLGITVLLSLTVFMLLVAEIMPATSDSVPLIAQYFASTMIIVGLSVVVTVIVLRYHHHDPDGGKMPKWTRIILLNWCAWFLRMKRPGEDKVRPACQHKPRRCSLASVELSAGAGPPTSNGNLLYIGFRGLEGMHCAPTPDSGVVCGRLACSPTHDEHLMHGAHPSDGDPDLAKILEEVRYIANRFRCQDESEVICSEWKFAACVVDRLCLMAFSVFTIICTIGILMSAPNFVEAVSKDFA

Sequence of Nicotinic acetylcholine receptor alpha9/alpha10 (P43144 whole entry): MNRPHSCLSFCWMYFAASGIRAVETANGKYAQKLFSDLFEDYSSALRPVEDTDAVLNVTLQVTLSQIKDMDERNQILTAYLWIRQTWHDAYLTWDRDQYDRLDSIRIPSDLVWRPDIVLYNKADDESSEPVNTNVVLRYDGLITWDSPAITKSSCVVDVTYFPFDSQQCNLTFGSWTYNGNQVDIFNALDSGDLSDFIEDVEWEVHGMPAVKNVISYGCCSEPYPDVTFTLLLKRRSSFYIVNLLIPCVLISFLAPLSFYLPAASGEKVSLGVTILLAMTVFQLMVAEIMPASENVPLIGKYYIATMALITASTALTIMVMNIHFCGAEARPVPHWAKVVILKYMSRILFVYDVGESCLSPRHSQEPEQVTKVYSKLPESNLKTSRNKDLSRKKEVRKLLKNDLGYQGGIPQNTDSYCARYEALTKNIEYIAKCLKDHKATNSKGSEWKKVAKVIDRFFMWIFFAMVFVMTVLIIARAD
Sequence of Nicotinic acetylcholine receptor alpha9/alpha10 (Q9JLB5 whole entry): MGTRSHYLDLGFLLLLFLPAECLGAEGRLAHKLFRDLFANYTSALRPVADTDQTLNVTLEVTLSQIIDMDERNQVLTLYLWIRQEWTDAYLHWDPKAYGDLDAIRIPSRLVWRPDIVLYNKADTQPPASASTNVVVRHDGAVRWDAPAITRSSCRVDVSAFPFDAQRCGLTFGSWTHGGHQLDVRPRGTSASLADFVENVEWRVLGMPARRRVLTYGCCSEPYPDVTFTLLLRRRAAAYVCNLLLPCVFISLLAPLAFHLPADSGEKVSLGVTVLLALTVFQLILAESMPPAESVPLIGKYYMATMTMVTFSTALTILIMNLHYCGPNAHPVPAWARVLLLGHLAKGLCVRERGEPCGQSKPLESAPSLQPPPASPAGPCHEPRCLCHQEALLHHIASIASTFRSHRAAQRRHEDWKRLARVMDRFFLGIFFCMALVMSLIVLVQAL

Structure (SMILES)	IC50 [1]	IC50 [2]
CC[C@H](C)[C@@H]1NC(=O)[C@H](CCCNC(=N)N)NC(=O)[C@H](CCCNC(=N)N)NC(=O)[C@@H]2CSSC[C@H](NC(=O)[C@H](Cc3ccc(O)cc3)NC(=O)[C@H](CCCNC(=N)N)NC(=O)CNC(=O)[C@H](CO)NC(=O)[C@H](CO)NC(=O)[C@H](CCCNC(=N)N)NC(=O)[C@@H](NC(=O)[C@@H](N)[C@@H](C)O)CSSC[C@@H](C(=O)N[C@H](C(=O)O)C(C)C)NC(=O)[C@H](C)NC(=O)[C@H](CC(=O)O)NC(=O)[C@H]([C@@H](C)O)NC1=O)C(=O)N[C@@H](C)C(=O)N[C@@H](CO)C(=O)N1CCC[C@H]1C(=O)N[C@@H](Cc1ccc(O)cc1)C(=O)N[C@@H](CC(=O)O)C(=O)N[C@@H](CCCNC(=N)N)C(=O)N[C@@H](CCCNC(=N)N)C(=O)N[C@@H](CCCNC(=N)N)C(=O)N[C@@H](CCCNC(=N)N)C(=O)N[C@@H](Cc1ccc(O)cc1)C(=O)N2 (HELM PEPTIDE1{T.C.R.S.S.G.R.Y.C.A.S.P.Y.D.R.R.R.R.Y.C.R.R.I.T.D.A.C.V}$PEPTIDE1,PEPTIDE1,2:R3-27:R3|PEPTIDE1,PEPTIDE1,9:R3-20:R3$$$V2.0)	35 nM	8760 nM
CC[C@H](C)[C@@H]1NC(=O)[C@H](CCCNC(=N)N)NC(=O)[C@H](CCCNC(=N)N)NC(=O)[C@@H]2CSSC[C@H](NC(=O)[C@H](Cc3ccc(O)cc3)NC(=O)[C@H](CCCNC(=N)N)NC(=O)CNC(=O)[C@H](CO)NC(=O)[C@H](CO)NC(=O)[C@H](CCCNC(=N)N)NC(=O)[C@@H](NC(=O)[C@H](C)N)CSSC[C@@H](C(=O)N[C@H](C(=O)O)C(C)C)NC(=O)[C@H](C)NC(=O)[C@H](CC(=O)O)NC(=O)[C@H]([C@@H](C)O)NC1=O)C(=O)N[C@@H](CCCNC(=N)N)C(=O)N[C@@H](CO)C(=O)N1CCC[C@H]1C(=O)N[C@@H](Cc1ccc(O)cc1)C(=O)N[C@@H](CC(=O)O)C(=O)N[C@@H](CCCNC(=N)N)C(=O)N[C@@H](CCCNC(=N)N)C(=O)N[C@@H](CCCNC(=N)N)C(=O)N[C@@H](CCCNC(=N)N)C(=O)N[C@@H](Cc1ccc(O)cc1)C(=O)N2	14 nM	2450 nM
CC[C@H](C)[C@@H]1NC(=O)[C@H](CCCNC(=N)N)NC(=O)[C@H](CCCNC(=N)N)NC(=O)[C@@H]2CSSC[C@H](NC(=O)[C@H](Cc3ccc(O)cc3)NC(=O)[C@H](CCCNC(=N)N)NC(=O)CNC(=O)[C@H](CO)NC(=O)[C@H](CO)NC(=O)[C@H](CCCNC(=N)N)NC(=O)[C@@H](NC(=O)[C@@H](N)[C@@H](C)O)CSSC[C@@H](C(=O)N[C@H](C(=O)O)C(C)C)NC(=O)[C@H](C)NC(=O)[C@H](CC(=O)O)NC(=O)[C@H](C)NC1=O)C(=O)N[C@@H](CCCNC(=N)N)C(=O)N[C@@H](CO)C(=O)N1CCC[C@H]1C(=O)N[C@@H](Cc1ccc(O)cc1)C(=O)N[C@@H](CC(=O)O)C(=O)N[C@@H](CCCNC(=N)N)C(=O)N[C@@H](CCCNC(=N)N)C(=O)N[C@@H](CCCNC(=N)N)C(=O)N[C@@H](CCCNC(=N)N)C(=O)N[C@@H](Cc1ccc(O)cc1)C(=O)N2	36 nM	7130 nM
CC[C@H](C)[C@@H]1NC(=O)[C@H](CCCNC(=N)N)NC(=O)[C@H](CCCNC(=N)N)NC(=O)[C@@H](NC(=O)[C@H](Cc2ccc(O)cc2)NC(=O)[C@H](CCCNC(=N)N)NC(=O)[C@H](CCCNC(=N)N)NC(=O)[C@H](CCCNC(=N)N)NC(=O)[C@H](CCCNC(=N)N)NC(=O)[C@H](CC(=O)O)NC(=O)[C@H](Cc2ccc(O)cc2)NC(=O)[C@@H]2CCCN2C(=O)[C@H](CO)NC(=O)[C@H](CCCNC(=N)N)NC(=O)[C@@H]2CSSC[C@H](NC(=O)[C@H](C)N)C(=O)N[C@@H](CCCNC(=N)N)C(=O)N[C@@H](CO)C(=O)N[C@@H](CO)C(=O)NCC(=O)N[C@@H](CCCNC(=N)N)C(=O)N[C@@H](Cc3ccc(O)cc3)C(=O)N2)CSSC[C@@H](C(=O)N[C@H](C(=O)O)C(C)C)NC(=O)[C@H](C)NC(=O)[C@H](CC(=O)O)NC(=O)[C@H]([C@@H](C)O)NC1=O	8.1 nM	1080 nM
CC[C@H](C)[C@@H]1NC(=O)[C@H](CCCNC(=N)N)NC(=O)[C@H](CCCNC(=N)N)NC(=O)[C@@H](NC(=O)[C@H](Cc2ccc(O)cc2)NC(=O)[C@H](CCCNC(=N)N)NC(=O)[C@H](CCCNC(=N)N)NC(=O)[C@H](CCCNC(=N)N)NC(=O)[C@H](CCCNC(=N)N)NC(=O)[C@H](CC(=O)O)NC(=O)[C@H](Cc2ccc(O)cc2)NC(=O)[C@@H]2CCCN2C(=O)[C@H](CO)NC(=O)[C@H](CCCNC(=N)N)NC(=O)[C@@H]2CSSC[C@H](NC(=O)[C@@H](N)[C@@H](C)O)C(=O)N[C@@H](CCCNC(=N)N)C(=O)N[C@@H](C)C(=O)N[C@@H](CO)C(=O)NCC(=O)N[C@@H](CCCNC(=N)N)C(=O)N[C@@H](Cc3ccc(O)cc3)C(=O)N2)CSSC[C@@H](C(=O)N[C@H](C(=O)O)C(C)C)NC(=O)[C@H](C)NC(=O)[C@H](CC(=O)O)NC(=O)[C@H]([C@@H](C)O)NC1=O	14 nM	1420 nM
CC[C@H](C)[C@@H]1NC(=O)[C@H](CCCNC(=N)N)NC(=O)[C@H](CCCNC(=N)N)NC(=O)[C@@H]2CSSC[C@H](NC(=O)[C@H](Cc3ccc(O)cc3)NC(=O)[C@H](CCCNC(=N)N)NC(=O)CNC(=O)[C@H](CO)NC(=O)[C@H](CO)NC(=O)[C@H](CCCNC(=N)N)NC(=O)[C@@H](NC(=O)[C@@H](N)[C@@H](C)O)CSSC[C@@H](C(=O)N[C@H](C(=O)O)C(C)C)NC(=O)[C@H](C)NC(=O)[C@H](CC(=O)O)NC(=O)[C@H]([C@@H](C)O)NC1=O)C(=O)N[C@@H](CCCNC(=N)N)C(=O)N[C@@H](CO)C(=O)N1CCC[C@H]1C(=O)N[C@@H](Cc1ccc(O)cc1)C(=O)N[C@@H](CC(=O)O)C(=O)N[C@@H](CCCNC(=N)N)C(=O)N[C@@H](CCCNC(=N)N)C(=O)N[C@@H](C)C(=O)N[C@@H](CCCNC(=N)N)C(=O)N[C@@H](Cc1ccc(O)cc1)C(=O)N2	58 nM	> 10000 nM
CC[C@H](C)[C@@H]1NC(=O)[C@H](CCCNC(=N)N)NC(=O)[C@H](CCCNC(=N)N)NC(=O)[C@@H]2CSSC[C@H](NC(=O)[C@H](Cc3ccc(O)cc3)NC(=O)[C@H](CCCNC(=N)N)NC(=O)CNC(=O)[C@H](CO)NC(=O)[C@H](CO)NC(=O)[C@H](CCCNC(=N)N)NC(=O)[C@@H](NC(=O)[C@@H](N)[C@@H](C)O)CSSC[C@@H](C(=O)N[C@H](C(=O)O)C(C)C)NC(=O)[C@H](C)NC(=O)[C@H](CC(=O)O)NC(=O)[C@H]([C@@H](C)O)NC1=O)C(=O)N[C@@H](CCCNC(=N)N)C(=O)N[C@@H](CO)C(=O)N1CCC[C@H]1C(=O)N[C@@H](Cc1ccc(O)cc1)C(=O)N[C@@H](CC(=O)O)C(=O)N[C@@H](CCCNC(=N)N)C(=O)N[C@@H](CCCNC(=N)N)C(=O)N[C@@H](CCCNC(=N)N)C(=O)N[C@@H](C)C(=O)N[C@@H](Cc1ccc(O)cc1)C(=O)N2	27 nM	> 10000 nM
CC[C@H](C)[C@@H]1NC(=O)[C@H](CCCNC(=N)N)NC(=O)[C@H](CCCNC(=N)N)NC(=O)[C@@H](NC(=O)[C@H](Cc2ccc(O)cc2)NC(=O)[C@H](CCCNC(=N)N)NC(=O)[C@H](CCCNC(=N)N)NC(=O)[C@H](CCCNC(=N)N)NC(=O)[C@H](CCCNC(=N)N)NC(=O)[C@H](CC(=O)O)NC(=O)[C@H](Cc2ccc(O)cc2)NC(=O)[C@@H]2CCCN2C(=O)[C@H](CO)NC(=O)[C@H](CCCNC(=N)N)NC(=O)[C@@H]2CSSC[C@H](NC(=O)[C@@H](N)[C@@H](C)O)C(=O)N[C@@H](CCCNC(=N)N)C(=O)N[C@@H](CO)C(=O)N[C@@H](CO)C(=O)NCC(=O)N[C@@H](CCCNC(=N)N)C(=O)N[C@@H](Cc3ccc(O)cc3)C(=O)N2)CSSC[C@@H](C(=O)N[C@@H](C)C(=O)O)NC(=O)[C@H](C)NC(=O)[C@H](CC(=O)O)NC(=O)[C@H]([C@@H](C)O)NC1=O	15 nM	760 nM
CC[C@H](C)[C@@H]1NC(=O)[C@H](CCCNC(=N)N)NC(=O)[C@H](CCCNC(=N)N)NC(=O)[C@@H](NC(=O)[C@H](Cc2ccc(O)cc2)NC(=O)[C@H](CCCNC(=N)N)NC(=O)[C@H](CCCNC(=N)N)NC(=O)[C@H](CCCNC(=N)N)NC(=O)[C@H](CCCNC(=N)N)NC(=O)[C@H](CC(=O)O)NC(=O)[C@H](Cc2ccc(O)cc2)NC(=O)[C@H](C)NC(=O)[C@H](CO)NC(=O)[C@H](CCCNC(=N)N)NC(=O)[C@@H]2CSSC[C@H](NC(=O)[C@@H](N)[C@@H](C)O)C(=O)N[C@H](CCCNC(=N)N)C(=O)N[C@@H](CO)C(=O)N[C@@H](CO)C(=O)NCC(=O)N[C@@H](CCCNC(=N)N)C(=O)N[C@@H](Cc3ccc(O)cc3)C(=O)N2)CSSC[C@@H](C(=O)N[C@H](C(=O)O)C(C)C)NC(=O)[C@H](C)NC(=O)[C@H](CC(=O)O)NC(=O)[C@H]([C@@H](C)O)NC1=O	16 nM	2250 nM
CC[C@H](C)[C@@H]1NC(=O)[C@H](CCCNC(=N)N)NC(=O)[C@H](CCCNC(=N)N)NC(=O)[C@@H]2CSSC[C@H](NC(=O)[C@H](Cc3ccc(O)cc3)NC(=O)[C@H](CCCNC(=N)N)NC(=O)CNC(=O)[C@H](CO)NC(=O)[C@H](CO)NC(=O)[C@H](CCCNC(=N)N)NC(=O)[C@@H](NC(=O)[C@@H](N)[C@@H](C)O)CSSC[C@@H](C(=O)N[C@@H](C)C(=O)O)NC(=O)[C@H](C)NC(=O)[C@H](CC(=O)O)NC(=O)[C@H]([C@@H](C)O)NC1=O)C(=O)N[C@@H](CCCNC(=N)N)C(=O)N[C@@H](CO)C(=O)N1CCC[C@H]1C(=O)N[C@@H](Cc1ccc(O)cc1)C(=O)N[C@@H](CC(=O)O)C(=O)N[C@@H](CCCNC(=N)N)C(=O)N[C@@H](CCCNC(=N)N)C(=O)N[C@@H](CCCNC(=N)N)C(=O)N[C@@H](CCCNC(=N)N)C(=O)N[C@@H](Cc1ccc(O)cc1)C(=O)N2	62 nM	1600 nM
